# Literature values in patent US20100210643A1, “sGC STIMULATORS, sGC ACTIVATORS AND COMBINATIONS FOR THE TREATMENT OF UROLOGICAL DISORDERS” (BAYER SCHERING PHARMA AKTIENGESELLSCHAFT, priority 2007, published 2010).
# Experiments:
# [1] = system: pre-contracted human prostate tissue; conditions: in vitro; literature (Uckert 2001)
# [2] = system: bladder of female Guinea Pigs; conditions: literature (Gillespie 2004)
SMILES,relaxation of pre-contracted human prostate tissue [1],relaxation of bladder [2]
CCCOc1ccccc1-c1nc2nn[nH]c2c(=O)[nH]1 [Zaprinast],able to relax,ineffective
CC(C)Cn1c(=O)n(C)c(=O)c2[nH]cnc21 [IBMX],,could relax
